# Source: US12252524B2, “GIP/GLP1 co-agonist compounds” (Eli Lilly and Company, priority 2018, dated 2025)
# Numbered stars: 1 amine (or outer) side, 2 acyl side, 3 side chain; on linkers, the order of the positions; unused ones are H or OH. Square brackets hold non-standard residues; d marks the D form. Side chains are listed from the residue outwards. Peptide text beside a SMILES is read from it. * marks the point of attachment. C20 diacid = O=C(O)CCCCCCCCCCCCCCCCCCC(=O)*; αMePhe(2-F) = C[C@](N)(Cc1ccccc1F)C(=O)O; γGlu = O=C(O)[C@H](CCC(=O)[*:2])N[*:1]; αMeF = C[C@](N)(Cc1ccccc1)C(=O)O; αMeL = CC(C)C[C@](C)(N)C(=O)O; AEEA = NCCOCCOCC(=O)O; Aib = CC(C)(N)C(=O)O
# Columns and labels:
# human Gcg receptor = biological target: T1, human Gcg receptor (Homo sapiens, UniProt P47871); experiment: [125I]-Glucagon binding (SPA), human Gcg receptor; conditions: read-out: hGLcgR Ki, nM (SEM, n)
# T1 construct: expressed in transfected cells; crude membranes
# T1 sequence (P47871 26-477): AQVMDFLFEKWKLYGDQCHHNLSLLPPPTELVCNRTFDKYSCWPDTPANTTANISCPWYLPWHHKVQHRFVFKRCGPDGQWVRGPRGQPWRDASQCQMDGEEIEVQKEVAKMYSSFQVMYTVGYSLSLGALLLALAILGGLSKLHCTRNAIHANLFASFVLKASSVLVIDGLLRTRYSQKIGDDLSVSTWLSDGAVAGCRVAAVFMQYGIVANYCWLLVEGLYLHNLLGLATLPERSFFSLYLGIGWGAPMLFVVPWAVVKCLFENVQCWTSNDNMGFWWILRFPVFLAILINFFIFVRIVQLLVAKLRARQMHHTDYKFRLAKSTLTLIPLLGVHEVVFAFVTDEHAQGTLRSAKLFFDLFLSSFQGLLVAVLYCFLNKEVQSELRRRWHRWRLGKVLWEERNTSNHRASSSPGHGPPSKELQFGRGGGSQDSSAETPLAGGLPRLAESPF
# Outline: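 Cell pellets were lysed in hypotonic Tris buffer, pH 7.5, homogenized, and spun at low then high speed to give crude membranes. Ki was derived from the fitted IC50.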
# human GIP receptor = biological target: T2, human GIP receptor (Homo sapiens, UniProt P48546); experiment: [125I]-GIP binding (SPA), human GIP receptor; conditions: read-out: hGIPR Ki, nM (SEM, n)
# T2 construct: expressed in transfected cells; crude membranes
# T2 sequence (P48546 22-466): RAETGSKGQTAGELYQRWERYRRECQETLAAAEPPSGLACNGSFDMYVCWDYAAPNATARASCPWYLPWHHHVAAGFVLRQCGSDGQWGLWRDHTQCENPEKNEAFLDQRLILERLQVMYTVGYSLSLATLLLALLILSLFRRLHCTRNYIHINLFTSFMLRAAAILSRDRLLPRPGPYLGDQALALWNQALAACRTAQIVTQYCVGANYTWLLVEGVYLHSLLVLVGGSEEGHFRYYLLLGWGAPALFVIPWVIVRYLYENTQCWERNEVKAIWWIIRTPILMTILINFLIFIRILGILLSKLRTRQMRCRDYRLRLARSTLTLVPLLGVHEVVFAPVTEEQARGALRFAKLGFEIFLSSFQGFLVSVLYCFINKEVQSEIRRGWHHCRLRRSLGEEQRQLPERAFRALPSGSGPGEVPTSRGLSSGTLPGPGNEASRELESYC
# [1] = biological target: human GLP-1 receptor (GLP-1R) (Homo sapiens, UniProt P43220); experiment: cAMP pharmacological functional assay in presence of casein, hGLP-1R; type: cell-based; conditions: HEK293 cells expressing hGLP-1R, 0.1% Casein, geometric mean; read-out: hGLP1R cAMP Rel EC50 nM (SEM, n)
# human GLP-1 receptor (GLP-1R), sequence (P43220 24-463): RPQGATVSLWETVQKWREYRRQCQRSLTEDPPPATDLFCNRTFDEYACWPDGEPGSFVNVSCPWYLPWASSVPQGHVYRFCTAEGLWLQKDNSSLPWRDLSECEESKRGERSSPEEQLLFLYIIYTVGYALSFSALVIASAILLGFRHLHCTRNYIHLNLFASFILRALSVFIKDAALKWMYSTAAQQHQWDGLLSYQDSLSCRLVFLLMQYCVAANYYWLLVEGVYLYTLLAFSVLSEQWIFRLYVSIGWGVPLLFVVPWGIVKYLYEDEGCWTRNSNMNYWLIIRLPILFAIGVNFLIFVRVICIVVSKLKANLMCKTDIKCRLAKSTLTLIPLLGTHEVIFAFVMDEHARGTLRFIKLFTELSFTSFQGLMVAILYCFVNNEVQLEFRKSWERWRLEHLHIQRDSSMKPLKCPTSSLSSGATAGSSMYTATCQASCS
# [2] = biological target: T3, gastric inhibitory peptide receptor (GIPR) (Homo sapiens, UniProt P48546); experiment: cAMP pharmacological functional assay in presence of casein, hGIPR; type: cell-based; conditions: HEK293 cells expressing hGIPR, 0.1% Casein, geometric mean; read-out: hGIPR cAMP Rel EC50 nM (SEM, n)
# T3 sequence (P48546 22-466): T2 sequence (P48546 22-466)
# human GLP-1R = human GLP-1R (Homo sapiens, UniProt P43220); experiment: [125I]-GLP-1 binding (SPA), human GLP-1 receptor; set-up: expressed in transfected cells; crude membranes; conditions: read-out: hGLP1R Ki, (nM) (SEM, n)
# human GLP-1R, sequence (P43220 24-463): as above
# Outline: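 Assay buffer: HEPES 25 mM, pH 7.4, CaCl2 2.5 mM, MgCl2 1 mM, with EDTA-free protease inhibitors. Receptor came from crude cell membranes prepared by homogenization and centrifugation at 4° C. IC50s came from four-parameter fits (maximum, minimum, IC50, Hill slope) and were expressed as Ki geometric means with SEM.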
SMILES,Ki (human Gcg receptor),Ki (human GIP receptor),EC50 [1],EC50 [2],Ki (human GLP-1R)
CC[C@H](C)[C@H](NC(=O)[C@H](CC(C)C)NC(=O)[C@H](Cc1ccc(O)cc1)NC(=O)[C@@H](CCC(=O)O)NC(=O)[C@@H](NC(=O)[C@H](Cc1ccccc1)NC(=O)[C@H](CCC(=O)O)NC(=O)C(C)(C)NC(=O)[C@H](CCC(N)=O)NC(=O)[C@H](C)NC(=O)[C@H](CCCCNC(=O)COCCOCCNC(=O)COCCOCCNC(=O)CC[C@H](NC(=O)CCCCCCCCCCCCCCCCCCC(=O)O)C(=O)O)NC(=O)[C@H](CCC(=O)O)NC(=O)[C@H](CC(=O)O)NC(=O)[C@H](CC(C)C)NC(=O)C(C)(C)NC(=O)[C@@H](NC(=O)[C@H](CO)NC(=O)[C@H](Cc1ccc(O)cc1)NC(=O)[C@H](CC(=O)O)NC(=O)[C@H](CO)NC(=O)[C@@H](NC(=O)[C@](C)(Cc1ccccc1)NC(=O)[C@@H](NC(=O)CNC(=O)[C@H](CCC(=O)O)NC(=O)C(C)(C)NC(=O)[C@@H](N)Cc1ccc(O)cc1)[C@@H](C)O)[C@@H](C)O)[C@@H](C)CC)[C@@H](C)CC)C(=O)N[C@@H](CCC(=O)O)C(=O)NCC(=O)NCC(=O)N1CCC[C@H]1C(=O)N[C@@H](CO)C(=O)N[C@@H](CO)C(=O)NCC(=O)N[C@@H](C)C(=O)N1CCC[C@H]1C(=O)N1CCC[C@H]1C(=O)N1CCC[C@H]1C(=O)N[C@@H](CO)C(N)=O [Example 225] (H-Y[Aib]EGT[αMeF]TSDYSI[Aib]LDEK([AEEA-AEEA-γGlu-C20 diacid])AQ[Aib]EFI[dE]YLIEGGPSSGAPPPS-NH2),714 nM,0.0622 nM,0.067 nM,0.101 nM,8.79 nM
CC[C@H](C)[C@H](NC(=O)[C@H](CC(C)C)NC(=O)[C@H](Cc1ccc(O)cc1)NC(=O)[C@@H](CCC(=O)O)NC(=O)[C@@H](NC(=O)[C@H](Cc1ccccc1)NC(=O)[C@H](CCC(=O)O)NC(=O)C(C)(C)NC(=O)[C@H](CCC(N)=O)NC(=O)[C@H](C)NC(=O)[C@H](CCCCNC(=O)COCCOCCNC(=O)COCCOCCNC(=O)CC[C@H](NC(=O)CCCCCCCCCCCCCCCCCCC(=O)O)C(=O)O)NC(=O)[C@H](CCC(=O)O)NC(=O)[C@H](CC(=O)O)NC(=O)[C@H](CC(C)C)NC(=O)[C@H](CC(C)C)NC(=O)[C@@H](NC(=O)[C@H](CO)NC(=O)[C@H](Cc1ccc(O)cc1)NC(=O)[C@H](CC(=O)O)NC(=O)[C@H](CO)NC(=O)[C@@H](NC(=O)[C@](C)(Cc1ccccc1F)NC(=O)[C@@H](NC(=O)CNC(=O)[C@H](CCC(=O)O)NC(=O)C(C)(C)NC(=O)[C@@H](N)Cc1ccc(O)cc1)[C@@H](C)O)[C@@H](C)O)[C@@H](C)CC)[C@@H](C)CC)C(=O)N[C@@H](CCC(=O)O)C(=O)NCC(=O)NCC(=O)N1CCC[C@H]1C(=O)N[C@@H](CO)C(=O)N[C@@H](CO)C(=O)NCC(=O)N[C@@H](C)C(=O)N1CCC[C@H]1C(=O)N1CCC[C@H]1C(=O)N1CCC[C@H]1C(=O)N[C@@H](CO)C(N)=O [Example 226] (H-Y[Aib]EGT[αMePhe(2-F)]TSDYSILLDEK([AEEA-AEEA-γGlu-C20 diacid])AQ[Aib]EFI[dE]YLIEGGPSSGAPPPS-NH2),200 nM,0.0254 nM,0.0284 nM,0.0461 nM,4.1 nM
CC[C@H](C)[C@H](NC(=O)[C@H](CC(C)C)NC(=O)[C@H](Cc1ccc(O)cc1)NC(=O)[C@@H](CCC(=O)O)NC(=O)[C@@H](NC(=O)[C@H](Cc1ccccc1)NC(=O)[C@H](CCC(=O)O)NC(=O)C(C)(C)NC(=O)[C@H](CCC(N)=O)NC(=O)[C@H](C)NC(=O)[C@H](CCCCNC(=O)COCCOCCNC(=O)COCCOCCNC(=O)CC[C@H](NC(=O)CCCCCCCCCCCCCCCCCCC(=O)O)C(=O)O)NC(=O)[C@H](CCC(=O)O)NC(=O)[C@H](CC(=O)O)NC(=O)[C@H](CC(C)C)NC(=O)[C@](C)(CC(C)C)NC(=O)[C@@H](NC(=O)[C@H](CO)NC(=O)[C@H](Cc1ccc(O)cc1)NC(=O)[C@H](CC(=O)O)NC(=O)[C@H](CO)NC(=O)[C@@H](NC(=O)[C@](C)(Cc1ccccc1)NC(=O)[C@@H](NC(=O)CNC(=O)[C@H](CCC(=O)O)NC(=O)C(C)(C)NC(=O)[C@@H](N)Cc1ccc(O)cc1)[C@@H](C)O)[C@@H](C)O)[C@@H](C)CC)[C@@H](C)CC)C(=O)N[C@@H](CCC(=O)O)C(=O)NCC(=O)NCC(=O)N1CCC[C@H]1C(=O)N[C@@H](CO)C(=O)N[C@@H](CO)C(=O)NCC(=O)N[C@@H](C)C(=O)N1CCC[C@H]1C(=O)N1CCC[C@H]1C(=O)N1CCC[C@H]1C(=O)N[C@@H](CO)C(N)=O [Example 227] (H-Y[Aib]EGT[αMeF]TSDYSI[αMeL]LDEK([AEEA-AEEA-γGlu-C20 diacid])AQ[Aib]EFI[dE]YLIEGGPSSGAPPPS-NH2),113 nM,0.0146 nM,0.0329 nM,0.0414 nM,2.01 nM
CC[C@H](C)[C@H](NC(=O)[C@H](CC(C)C)NC(=O)[C@H](Cc1ccc(O)cc1)NC(=O)[C@@H](CCC(=O)O)NC(=O)[C@@H](NC(=O)[C@H](Cc1ccccc1)NC(=O)[C@H](CCC(=O)O)NC(=O)C(C)(C)NC(=O)[C@H](CCC(N)=O)NC(=O)[C@H](C)NC(=O)[C@H](CCCCNC(=O)COCCOCCNC(=O)COCCOCCNC(=O)CC[C@H](NC(=O)CCCCCCCCCCCCCCCCCCC(=O)O)C(=O)O)NC(=O)[C@H](CCCCN)NC(=O)[C@H](CC(=O)O)NC(=O)[C@H](CC(C)C)NC(=O)[C@](C)(CC(C)C)NC(=O)[C@@H](NC(=O)[C@H](CO)NC(=O)[C@H](Cc1ccc(O)cc1)NC(=O)[C@H](CC(=O)O)NC(=O)[C@H](CO)NC(=O)[C@@H](NC(=O)[C@](C)(Cc1ccccc1)NC(=O)[C@@H](NC(=O)CNC(=O)[C@H](CCC(=O)O)NC(=O)C(C)(C)NC(=O)[C@@H](N)Cc1ccc(O)cc1)[C@@H](C)O)[C@@H](C)O)[C@@H](C)CC)[C@@H](C)CC)C(=O)N[C@@H](CCC(=O)O)C(=O)NCC(=O)NCC(=O)N1CCC[C@H]1C(=O)N[C@@H](CO)C(=O)N[C@@H](CO)C(=O)NCC(N)=O [Example 228] (H-Y[Aib]EGT[αMeF]TSDYSI[αMeL]LDKK([AEEA-AEEA-γGlu-C20 diacid])AQ[Aib]EFI[dE]YLIEGGPSSG-NH2),182 nM,0.028 nM,0.0282 nM,0.0503 nM,2.43 nM
CC[C@H](C)[C@H](NC(=O)[C@H](CC(C)C)NC(=O)[C@H](Cc1ccc(O)cc1)NC(=O)[C@@H](CCC(=O)O)NC(=O)[C@@H](NC(=O)[C@H](Cc1ccccc1)NC(=O)[C@H](CCC(=O)O)NC(=O)C(C)(C)NC(=O)[C@H](CCC(N)=O)NC(=O)[C@H](C)NC(=O)[C@H](CCCCNC(=O)COCCOCCNC(=O)COCCOCCNC(=O)CC[C@H](NC(=O)CCCCCCCCCCCCCCCCCCC(=O)O)C(=O)O)NC(=O)[C@H](CCC(=O)O)NC(=O)[C@H](CC(=O)O)NC(=O)[C@H](CC(C)C)NC(=O)[C@](C)(CC(C)C)NC(=O)[C@H](CO)NC(=O)[C@H](Cc1ccc(O)cc1)NC(=O)[C@H](CC(=O)O)NC(=O)[C@H](CO)NC(=O)[C@@H](NC(=O)[C@](C)(Cc1ccccc1F)NC(=O)[C@@H](NC(=O)CNC(=O)[C@H](CCC(=O)O)NC(=O)C(C)(C)NC(=O)[C@@H](N)Cc1ccc(O)cc1)[C@@H](C)O)[C@@H](C)O)[C@@H](C)CC)C(=O)N[C@@H](CCC(=O)O)C(=O)NCC(=O)NCC(=O)N1CCC[C@H]1C(=O)N[C@@H](CO)C(=O)N[C@@H](CO)C(=O)NCC(=O)N[C@@H](C)C(=O)N1CCC[C@H]1C(=O)N1CCC[C@H]1C(=O)N1CCC[C@H]1C(=O)N[C@@H](CO)C(N)=O [Example 229] (H-Y[Aib]EGT[αMePhe(2-F)]TSDYS[αMeL]LDEK([AEEA-AEEA-γGlu-C20 diacid])AQ[Aib]EFI[dE]YLIEGGPSSGAPPPS-NH2),> 1100 nM,2.47 nM,2.11 nM,4.79 nM,36.2 nM
